# A melting point compilation (Tetko et al.; mined from patent text by program, amines drawn as free bases though some values may be those of a salt)
row,Structure (SMILES),melting point [°C]
1,COC(=O)c1ccc(OCCNC(=O)OCc2ccccc2)c(Cl)c1,81
2,CC1(C)NC(=O)N(c2ccc(C#N)c(C(F)(F)F)c2)C1=N,228
3,O=S(=O)(c1ccc(Cl)cc1)C(c1ccc(CO)cn1)c1cc(F)ccc1F (stereo not given),151 to 152
4,CCCc1c(O)ccc2c1CCCC2=O,159 to 160
5,COC(=O)c1cc(O)nn1Cc1ccccc1,82 to 84
6,C=CCN(CC=C)c1nc(NC(=O)c2ccccc2)n2oc(=O)nc2n1,174 to 175
7,O=C(CCN1CCN(c2ncc(F)cn2)CC1)Cc1ccc(F)c2ccccc12,119 to 120
8,COc1cc(C=C2CCc3c2nc2ccc(Cl)cn2c3=O)cc(OC)c1OC,222 to 223
9,CCOC(=O)NNc1ccc(-c2ccc(C#N)cc2)nn1,235
10,Cc1ccc(S(=O)(=O)NC(C)(C)C)s1,89
11,CCOC(=O)C(C)Oc1ccc(N(C)c2cnc3cc(Cl)c(Cl)cc3n2)cc1 (stereo not given),79
12,CN(Sc1ccccc1)C(=O)Oc1cccc2c1OC(C)(C)C2,66
13,CSc1c(C#N)c(=O)n2ccccc2c1C(C)=O,178
14,O=C(NC1CCN(CCCc2ccc(F)cc2)CC1)C1=Cc2cnc3cccc(n23)S1,117 to 119
15,O=C1CC2(CCCC2)c2ccc(Cl)cc21,54
16,NC(=O)C(O)(C(N)=O)c1ccccc1,159
17,COC(=O)c1cc(O)c2c(c1)c1ccccc1n2C,204 to 206
18,Cc1cc(-c2nc3cccnn3c2-c2ccnc(NC(=O)c3ccsc3)c2)ccc1F,217 to 218
19,CCc1cc(-c2cccnc2)nn1-c1ccc(NC(=O)c2cc3ccccc3n2C)cc1,178 to 179
20,Clc1ccc2c(C3=CCN(CCC4CCc5ccccc54)CC3)c[nH]c2c1 (stereo not given),181 to 183
21,CC1(C)c2cc(O)ccc2OC1O (stereo not given),78 to 81
22,CCOC(=O)c1cc(=O)c2c(OCCn3c(=O)sc4ccc(Cl)cc43)cccc2o1,177 to 178
23,CC(C)(C)OC(=O)N1CCN(C(=O)OC(C)(C)C)C(C(=O)O)C1 (stereo not given),231 to 233
24,Cc1ccccc1Oc1ccccc1C(=O)O,133 to 134
25,CCCCCN1C(=O)C2(COc3cc4nc(C)sc4cc32)c2ccccc21 (stereo not given),105 to 107

row,Structure (SMILES),melting point [°C]
1,Nc1cc(OC(F)(F)C(F)Cl)c(OC(F)(F)C(F)Cl)cc1N (stereo not given),58 to 60
2,Cc1ccc(-c2ncn(-c3ccc(C(F)(F)C(F)(F)C(F)(F)F)cc3)n2)cc1,140 to 143
3,CC(C)(C)OC(=O)c1sc(Nc2ccc(Cl)cc2)c2c1CCc1cnoc1-2,197 to 198
4,N#Cc1c(N2CCCCC2)cc(-c2ccc(F)cc2)c2c1-c1ccccc1C2=O,180 to 182
5,Cc1nc(-c2ccccc2)nc(-c2ccc([N+](=O)[O-])cc2)c1C(C)O (stereo not given),146 to 148
6,C[Si](C)(C)N(SN=C(Cl)C#N)[Si](C)(C)C,29 to 30
7,O=C(c1cc2cc(OCCNC[C@H](O)COc3ccccc3)ccc2[nH]1)N1CCCC1,110 to 115
8,CCCCCCCCC1SC(=S)SC1CCCCCCCCO (stereo not given),40 to 47
9,Cc1ccc2[nH]ncc2c1NCCN,153 to 155
10,COc1ccc(C2=N[C@H](c3ccccc3)CO2)cc1C#CCN(O)C(N)=O,190 to 192
11,CC(C)=CCOc1ccc2cc(C(C)C(=O)O)ccc2c1 (stereo not given),97 to 100
12,Cc1c(-c2ccccc2)c(N2CC[C@H](N(C)C)C2)c2oc(/C=C/c3ccccc3)nc2c1C#N,165 to 166
13,Cc1nc2c3c(c(C(=O)N(C)C)cc2[nH]1)CCC1(Cc2ccccc2C1)N3,183
14,CC1(C)CC(=O)C2=C(C1)NC1=C(C(=O)CC(C)(C)C1)C2c1cccc(Oc2cnccn2)c1,204 to 207
15,CCCCCCCCC(CCC(=O)O)C(C)=O (stereo not given),36 to 38
16,CCc1c(N2CCC(C(N)c3ccccn3)C2)c(F)c(N)c2c(=O)c(C(=O)O)cn(C3CC3F)c12 (stereo not given),127 to 129
17,Cc1cc2ccccc2nc1NN,128
18,CCN(CC)c1cccc(CCC(N)=O)c1,59
19,Nc1nc2ccccc2c2c1ncn2COCc1ccccc1,168 to 172
20,Cc1cc(-c2cnn3c(C(F)(F)F)cc(-c4ccc(C(F)(F)F)cc4)nc23)cc(C)n1,257
21,COc1c(C)cnc(CS(=O)c2nc3ccccc3n2CCl)c1C (stereo not given),140 to 141
22,O=C(c1cccc(Cc2ccc(=O)[nH]n2)c1)c1c(Cl)cc(Cl)cc1Cl,149 to 151
23,Nc1ncnc2c1c(-c1ccc(Oc3ccccc3)cc1)cn2C1CCOCC1,193 to 194
24,CS(=O)(=O)NC1CC(N)(C(=O)O)C2C(C(=O)O)C12 (stereo not given),> 275
25,Cc1nc(Cl)c(C)c(Cl)n1,46 to 47

row,Structure (SMILES),melting point [°C]
1,COc1ccc(-c2ccc(C(C)=O)cc2)cc1OC1CCCC1,117 to 118
2,Cc1nc(-c2cccc(OC(C)C)c2)sc1C(=O)O,177 to 179
3,Fc1cccc2c(OCCc3ccc(Cl)cc3)ccnc12,139 to 140
4,CN(C)C(=O)C1(C)CN(C(=O)Nc2ccc(Cl)cc2)N=C1c1ccc(Cl)cc1 (stereo not given),194 to 197
5,CCc1c(NC(=O)c2cc(S(C)(=O)=O)ccc2OCC(C)C)c(C(N)=O)nn1CCN1CCOCC1,200 to 203
6,Cc1ccc(-c2ncc3c(n2)CCCC3)nc1Br,125 to 128
7,N#Cc1nc(Cl)c(Cl)nc1C#N,180 to 182
8,Cc1ccc(S(=O)(=O)OC(=O)c2ccc(C(=O)OS(=O)(=O)c3ccc(C)cc3)cc2)cc1,170 to 176
9,COc1cc(NC2CC3CCC(C2)N3Cc2ccccc2)ccc1C(N)=O (stereo not given),138 to 140
10,COc1ccc(CN2C(=O)CC2C(=O)O)c(OC)c1 (stereo not given),124 to 125
11,COC(=O)C(CC(C)C)NCC(=O)Nc1cccc2c1C(=O)c1c(NC(=O)CNC(CC(C)C)C(=O)OC)cccc1C2=O (stereo not given),238 to 239
12,Cc1ncncc1C(=O)Nc1ccc(-n2nc(C(F)(F)F)c(Cl)c2C2CC2)c(F)c1,183 to 185
13,Cc1ccc(-c2cc(F)c(F)cc2-c2ccc(S(N)(=O)=O)cc2)cc1C,133 to 134
14,N#CC[C@@H]1CC[C@@H]2CN(c3noc4ccccc34)CCN2C1 (relative stereo),184 to 186
15,CC(C)(C)c1ccc(Cn2ccc3ccc(-c4ccc(OC(F)(F)F)cc4)cc32)cc1,100 to 102
16,CN1CCN(Cc2nc(C(N)=O)nn2-c2ccc(Cl)cc2C(=O)c2ccccc2Cl)CC1,167 to 169
17,O=C1N=C(N2CCOCC2)SC1c1cncc(-c2cc(F)c(O)c(C34CC5CC(CC(C5)C3)C4)c2)c1 (stereo not given),310 to 317
18,CC(C)c1cccc(C(C)C)c1NC(=O)N(Cc1ccccc1)CC1(c2ncccn2)CCCCC1,112 to 114
19,CCOC(=O)Nc1nc(C)co1,126
20,CC(C)Cn1c(CO)c(-c2ccccc2)c2cc(Br)ccc2c1=O,176 to 177
21,CCCC(=O)Nc1cccc2c1C(=O)c1c-2n[nH]c1-c1ccc(OC)cc1,282
22,Cc1nc(N)c2nc(C)n(CCNC(=O)C(C)C)c2c1C,220 to 222
23,COc1c(C)cc(P(c2cc(C)c(OC)c(C)c2)c2cc(C)c(OC)c(C)c2)cc1C,176
24,Cc1c(-c2ccc(NC(=O)C(C)C)cc2)sc2ncc(C(=O)C(C)C)c(O)c12,247 to 249
25,O=C1c2ccccc2CCn2c(SC(F)(F)F)ccc21,95 to 95.5

row,Structure (SMILES),melting point [°C]
1,C1=C(CCC2=Cc3ccccc32)c2ccccc21,86 to 87
2,O=C1NCC(Cc2ccccc2C(F)(F)F)O1 (stereo not given),142 to 143
3,CCOC(=O)c1cccc(-c2nc(-c3ccc(C(C)C)cc3)cs2)c1,91 to 92
4,CCOP(=O)(Cc1ccc(N)c2ccccc12)OCC,73 to 74
5,CCc1cc(OC)cc2nc(-c3ccc(OC)cc3)oc12,85
6,CCCc1nc(SCCCCC(=O)O)c(C(=O)O)n1Cc1cc2c(cc1Cl)OCO2,156
7,Cc1ccc2nc(C)c(C(=O)NNC(=O)CCl)n2c1,290 to 291
8,O=Cc1cnc(Cl)c(Cl)c1,65
9,CN(C)C(=O)N(C)Cc1cccc2c1C(=O)N(C1CCC(=O)NC1=O)C2=O (stereo not given),206 to 208
10,CC(C)(C)[Si](C)(C)Oc1ccc(NC(=O)CN2CCC(O)(Cc3ccccc3)CC2)cc1,105 to 108
11,CNc1nc(-c2cccc(NC(=O)Cc3ccccc3)c2)c2cc(OC)c(OC)cc2n1,175 to 177
12,CC1(C)CN(C2CCN(c3cc(Cl)cc(Cl)c3)C2=O)C1=O (stereo not given),185 to 186
13,CN(C(=O)Cc1[nH]c(=O)c2ccc(Cl)cc2c1-c1ccccc1)c1cc(C(F)(F)F)cc(C(F)(F)F)c1,181 to 182
14,COC(=O)c1ccc(Cn2cnc3ccccc32)cc1,94 to 95
15,COc1cc(C=O)cc(OC)c1OC1OC(COC(C)=O)C(OC(C)=O)C(OC(C)=O)C1NC(C)=O (stereo not given),222 to 225
16,Cc1cc(C(=CC(=O)N2CCOCC2)c2ccccc2)ccc1OS(=O)(=O)N(C)C,108
17,CC(C)(C)NC(=O)c1nc(Cl)c(Cl)[nH]1,218
18,CCNC(=S)NCc1cccc2c1C(=O)N(C1CCC(=O)NC1=O)C2=O (stereo not given),154 to 156
19,CN(Cc1cc2c(=O)c(C(=O)NCc3ccc(Cl)cc3)cn(C)c2s1)C[C@@H](O)c1ccco1,159 to 162
20,CCOC(=O)CC(C)N=c1sc2ccc(Cl)cc2s1 (stereo not given),60 to 61
21,CC(=O)Nc1nc2c(Oc3cc(-c4ccc(C(F)(F)F)cc4)nc(N4CCN(C(=O)OC(C)(C)C)CC4)n3)cccc2s1,211
22,C=CCOC(=O)N1CCC[C@@H](OC)[C@@H]1CC(=O)Cn1cnc2cc(Cl)c(Oc3ccc(Cl)cc3)cc2c1=O (relative stereo),138 to 141
23,COC(=O)c1cccc(S(=O)(=O)N2CCC(N3N=C(c4ccc(OC)c(OC)c4)C(C)(C)C3=O)CC2)c1,214
24,C1=C(c2c[nH]c3ccccc23)CCN(CC2COc3ccc4ncncc4c3O2)C1 (stereo not given),204 to 207
25,CCCCCCc1nc2ccccc2n1Cc1ccc(C(=O)O)cc1,191 to 193
